Data from patent publication US12269815B2, “Dantrolene prodrugs and methods of their use” (EAGLE RESEARCH LABS LIMITED, priority 2017, dated 2025).
Where two headings read alike, the source gives them in different places. Each block holds one molecule with its values, some of them ahead of it.

Tests used:
[1] = not given; remark: listed apart in the source
[2] = Whole-blood pharmacokinetics of Compound 2a in live rats (second analysis); assay type: in vivo; conditions: 7.5 mg/kg Compound 2a
[3] = set-up: species or system Harlan Sprague Dawley rats; conditions: rat, in vivo, 7.5 mg/kg
Experimental: Compound 2a is formulated at 8 mg/mL in 5% aqueous mannitol (as a tonicity modifier), at pH 8.0. The formulation is administered IV, SC, or IM to cannulated Harlan Sprague Dawley rats (3 rats/group) from Envigo RMS, Inc. (Indianapolis, Ind.). […] Whole blood (0.1 mL) is collected via a jugular vein catheter at 0, 0.033 (IV only), 0.083, 0.167, 0.33, 0.66, 1, 3, 6, and 9 hours. […] Samples are then placed on wet ice until centrifugation to remove precipitate. […] Samples are quantified based on standard curves prepared with each analyte in the precipitated whole blood matrix. […] Area Under the Curve (AUC) is calculated using the trapezoidal rule by SigmaPlot 12.5 software.

[4] = Another pharmacokinetic analysis of Compound 2a in live rats (whole blood and plasma; IV, IM, SC); assay type: in vivo; conditions: 7.5 mg/kg Compound 2a
[5] = rat, in vivo; for % Bioavailability of dantrolene: 7.5 mg/kg
[6] = cited from earlier work
physchem = conditions: rat, plasma

SMILES: Cl.NCC(=O)OCN1C(=O)CN(/N=C/c2ccc(-c3ccc([N+](=O)[O-])cc3)o2)C1=O [Compound 22c]
- half-life of prodrug in rat plasma: 0.0533 h
- reconversion in phosphate-buffered saline [1]: 85%

SMILES: O=C1CN(/N=C/c2ccc(-c3ccc([N+](=O)[O-])cc3)o2)C(=O)N1COP(=O)([O-])[O-].[Na+].[Na+] [Compound 2a]
- % Bioavailability of dantrolene ([2]; IM): 95.3%
- % Bioavailability of dantrolene ([2]; IV): 100%
- appearance of dantrolene in the blood after administration [3]: rapid appearance of dantrolene in the blood
- half-life of prodrug in rat plasma: 1.37 h
- % Bioavailability of dantrolene ([4]; plasma, IM): 56.7%
- % Bioavailability of dantrolene ([4]; plasma, IV): 100%
- % Bioavailability of dantrolene ([4]; plasma, SC): 49.7%
- % Bioavailability of dantrolene ([4]; whole blood, IM): 80.8%
- % Bioavailability of dantrolene ([4]; whole blood, IV): 100%
- % Bioavailability of dantrolene ([4]; whole blood, SC): 64.0%
- amount of 2a observed after administration [5]: only trace amounts
- % Bioavailability of dantrolene ([5]; im): 77.8%
- % Bioavailability of dantrolene ([5]; iv): 100%
- conversion to dantrolene in phosphate-buffered saline [1]: no conversion was observed

SMILES: O=C1CN(/N=C/c2ccc(-c3ccc([N+](=O)[O-])cc3)o2)C(O)=N1 [Dantrolene, 1-{[5-(4-nitrophenyl)-2-furyl]methylideneamino}imidazolidine-2,4-dione]
- solubility in water [6]: very poorly soluble in water

- half-life at 100 μg/mL (physchem): 7.45 h
SMILES: O=C(O)CCC(=O)OCc1ccc(NC(=O)OCN2C(=O)CN(/N=C/c3ccc(-c4ccc([N+](=O)[O-])cc4)o3)C2=O)cc1 [Compound 17b]
